According to patent publication US20130281512A1, “AGENTS FOR TREATING DISORDERS INVOLVING MODULATION OF RYANODINE RECEPTORS” (LES LABORATOIRES SERVIER, priority 2012, published 2013):

Tests used:
[1] = tested on: ischemia-reperfusion induced heart failure; assay: Model of chronic post-ischemic heart failure in rat (ischemia-reperfusion injury); assay type: in vivo; details: 5 mg/kg/d in drinking water, 3 months
Experimental: Chronic heart failure was induced in male wistar rats (224-240 g, 10-11 weeks of age) by ischemia-reperfusion (I/R) injury. For I/R protocol, the left anterior descending (LAD) coronary artery was occluded for 1 h. Drug treatment (5 mg/kg/d or 10 mg/kg/d in drinking water) was initiated 1 week after reperfusion and was maintained for a 3 month study period. […] Cardiac specimens were also analyzed to assess hypertrophy and collagen content. The study design is depicted in FIG. 3. Experiments were performed in a blinded manner. On parameters measured over time, comparison of Sham versus Vehicle and comparison of drug treatments are analyzed by 2 way ANOVAs with repeated measures. On parameters measured at sacrifice and morphometry, comparisons of Sham versus Vehicle are analyzed by t-test and comparisons of drug treatments by 1-way ANOVA followed by Dunnett test.

[2] = Metabolic stability in rat hepatic microsomes (Clint, predicted MF %); assay type: in vitro ADME; details: for Clint_mic rat (in vitro intrinsic clearance): 10^-7 M, 0.33 mg protein/ml, NADPH; for MF mic % (metabolic bioavailability): predicted from Clint assuming total absorption
Experimental: (§1) Compound solubilization: Stock solutions were made in DMSO, and working solutions in water containing 1 mg/ml BSA.
(§2) Prediction of metabolic bioavailability: Metabolic bioavailability predictions (MF %) were based on in vitro metabolic stability measurements with hepatic microsomes assuming total absorption. Briefly, unchanged drugs were quantified by LC-MS-MS following incubation (10^−7M) with rat and human hepatic microsomes (0.33 mg protein/ml) after 0, 5, 15, 30 and 60 min of incubation in presence of NADPH (1 mM). Enzymatic reaction was stopped with methanol (v/v) and proteins were precipitated by centrifugation. The in vitro intrinsic clearances (Clint_mic) expressed as ml/min/g protein were the slope (after LN linearization) of the unchanged drug remaining concentration versus incubation time. In vitro Clint were then scaled up to in vivo whole body (vivoClint) using 0.045 mg prot/kg of liver and liver weight of 11 g for the rat and 1.2 kg for Man.

[3] = Metabolic stability in human hepatic microsomes (Clint, predicted MF %); assay type: in vitro ADME; details: for Clint_mic man (in vitro intrinsic clearance): 10^-7 M, 0.33 mg protein/ml, NADPH; for MF mic % (metabolic bioavailability): predicted from Clint assuming total absorption
Experimental: as §1, §2

[4] = Metabolic stability in mouse microsomes (% remaining); assay type: in vitro ADME
Experimental: (§3) 0.1M Tris HCl buffer at pH 7.4 containing 5 mM EDTA.
(§4) To a 50 mL falcon tube containing 2.79 mL of dilution buffer were added 0.429 mL of NADPH-regenerating soln. A and 0.079 mL of NADPH-regenerating soln. B […]
(§5) […] A 50 mL falcon tube containing 3.32 mL of dilution buffer was prewarmed at 37° C. for 15 min. (at least 10 min.) 0.178 mL of microsome (24.6 mg/mL) were added to the prewarmed dilution buffer. The protein concentration of this microsome preparation was 1.25 mg/mL.
(§6) Sample (Test Compound)—Original and Intermediate Stock Solutions:
(§7) 100 μM intermediate solution of the test compound from the original stock solution were prepared using the dilution buffer. A 5 μM solution was prepared by diluting the 100 μM intermediate solution using dilution buffer.
(§8) (The experiments were conducted in 1.5 mL eppendorf micro centrifuge tubes) 0 minutes incubation. Procedure: a. Add 100 μL of prewarmed microsomes b. Add 50 μL of 5 μM solution of the test compound. c. Add 500 μL of cold stop solution (ice cold Methanol) d. Add 100 μL of NADPH cofactor solution to the eppendorf. a. Vortex mix the eppendorf. […]
(§9) b. Add 100 μL of NADPH cofactor solution to the eppendorf. c. Add 50 μL of 5 μM solution of the test compound. d. Add 100 μL of prewarmed microsomes e. Incubate the eppendorf at 37° C. 300 rpm for ‘t’ min. on a thermomixer. f. Remove the eppendorf from thermomixer g. Add 500 μL of cold stop solution (ice cold Methanol) h. Vortex mix the eppendorf.
(§10) Both the ‘0’ and ‘t’ minutes incubated samples were centrifuged at 15, 000 rcf at 4° C. for 15 min. 500 μL of the supernatant solution was removed and subject it to LC/MS analysis (SIM—Selected Ion Monitoring) […]
(§11) Results are expressed as % test compound remaining=(MS Area response of T min sample/MS Area response of ‘0’ min sample)*100. The MS area used is an average of duplicate injections.
(§12) Time points=0, 15, 30 and 60 min. for each test compound
(§13) 2 μM Imipramine—5 min. and 2 μM Imipramine—15 min. incubation was used as a positive control for the rat and mouse liver microsome stability experiments.

[5] = Metabolic stability in rat microsomes (% remaining); assay type: in vitro ADME
Experimental: as §3, §4, §5, §6, §7, §8, §9, §10, §11, §12, §13

rat hepatocytes = assay: Metabolic stability in rat hepatocytes; assay type: in vitro ADME; details: for Clint: 6.00E+05 cells/ml, 10^-7 M
Experimental: (§14) Compound solubilization: Stock solutions were made in DMSO, and working solutions in William medium containing 1/10 rat plasma or 1/4 human plasma.
(§15) Metabolic stability determination: Compounds were incubated at 10^−7 M with isolated hepatocytes (6E+5 cells/ml for rat hepatocytes and 4E+5 cells/ml for human hepatocytes) at 37° C. in plasma from the same species diluted in Wiliams medium (1/10 dilution for rat and 1/4 dilution for human). Sampling times were performed at 0, 10, 20, 30, 60 and 120 min and enzymatic reaction stopped with methanol (v/v). Proteins were precipitated by centrifugation and the supernatant was analyzed by LC/MS/MS. Clint expressed as ml/min/g protein were calculated as for hepatic microsomes using a ratio of 0.134 mg protein/ml for 4E+5 cells/ml for human and 0.201 mg protein/ml for 6E+5 cells/ml for rat. The presence of the reference drug and the potential metabolite was checked by LC/MS/MS during the assay in each sample.

human hepatocytes = assay: Metabolic stability in human hepatocytes; assay type: in vitro ADME; details: for Clint: 4.00E+05 cells/ml, 10^-7 M
Experimental: as §14, §15

PKA-phosphorylated RyR2 = biological target: T1, PKA-phosphorylated RyR2 (Homo sapiens, UniProt Q92736); assay: Calstabin2 rebinding assay: binding of calstabin2 to PKA-phosphorylated RyR2 (cardiac SR, immunoblot); details: 100 nM compound; immunoblot with calstabin2 antibody
T1 construct: Cardiac SR membranes were prepared as previously described; from tissue; host or cells: cardiac sarcoplasmic reticulum (heart muscle microsomes)
Experimental: Cardiac SR membranes were prepared as previously described (Marx et al., 2000; Kaftan et al., Circ. Res., 1996, 78:990-97). Immunoblotting of microsomes (50 μg) was performed as described, with anti-calstabin antibody (1:1,000) (Jayaraman et al., J. Biol. Chem., 1992, 267:9474-77) for 1 hr at room temperature (Reiken et al., Circulation, 107:2459-66, 2003). After incubation with HRP-labeled anti-rabbit IgG (1:5,000 dilution; Transduction Laboratories, Lexington, Ky.), the blots were developed using ECL (Amersham Pharmacia, Piscataway, N.J.) and detected on x-ray film, or exposed to secondary antibodies labeled with infrared Dye and visualized on equipment from Li-Cor Biosciences (model Odyssey). Unless otherwise stated, compounds were tested at a concentration of 100 nM. A representative calstabin2 binding assay is presented below.
A. PKA phosphorylation of cardiac sarcoplasmic reticulum (CSR)
B. Reaction mixture was set up in 1.5 ml microfuge tube. 200 μg of cardiac SR were added to a reaction mix of kinase buffer, PKA and ATP to a final volume of 100 (Reaction mix below). ATP was added last to initiate the reaction.
20 μl Sample (cardiac SR, 2 or 10 μg/μl) 10 μl=10× Kinase buffer (80 mM MgCl2, 100 mM EGTA, 500 mM Tris/PIPES), pH=7.0
20 μl PKA (2units/ul) (Sigma # P2645)
40 μl=distilled H2O • 1. The tubes were incubated at 30° C. for 30 minutes. • 2. The reaction mix was then transferred to 0.5 ml thick walled glass tubes. • 3. The glass tubes containing the reaction mix were centrifuged for 10 min at 50,000×g in Sorvall Centrifuge RCM120EX using S120AT3 rotor. Centrifugation at 50,000×g for 10 min is sufficient to isolate the microsomes. • 4. The resulting pellet was washed 4 times with binding buffer (10 mM Imidazol 300 mM Sucrose, pH=7.4). Each time 100111 of 1× binding buffer was added to the tube to wash the pellet. The pellet was resuspended by flushing up and down using the pipette tip. After the last spin 501.11 of binding buffer was added and the pellets from all tubes were pooled. The reaction was stored at −20° C. • 5. Phosphorylation was confirmed by separating approximately 10 μg of CSR by 6% Polyacylamide gel electrophoresis (PAGE) and analyzing the immunoblots for both total RyR (5029 Ab, 1:3000 dilution or Monoclonal Ab from Affinity Bioreagents, Cat # MA3-916, 1:2000 dilution) and PKA phosphorylated RyR2 (P2809 Ab, 1:10000 dilution). • 6. Aliquots can be stored at −80 C.
C. Calstabin Rebinding Assay
• 1. PKA-phosphorylated CSR (approximately 20 μg) was incubated with 250 nM Calstabin 2 in 100111 binding buffer (as described above) with or without compounds. • 2. […] Calstabin2 binding was detected with anti-FKBP (Jayaraman et al., J. Biol. Chem. 1992; 267:9474-77, 1:2000) primary antibody and appropriate secondary antibody.

PKA-phosphorylated RyR1 = PKA-phosphorylated RyR1 (Homo sapiens, UniProt P21817); assay: biochemical
Experimental: Immunoblotting of microsomes (50 μg) was performed as described, with anti-calstabin1 antibody (Zymed) (1:1,000). The blots were developed and quantified as described in Example 2.

DMD exon skipping = details: skeletal muscle of mdx mice; cited from earlier work

T1 sequence (Q92736 whole entry): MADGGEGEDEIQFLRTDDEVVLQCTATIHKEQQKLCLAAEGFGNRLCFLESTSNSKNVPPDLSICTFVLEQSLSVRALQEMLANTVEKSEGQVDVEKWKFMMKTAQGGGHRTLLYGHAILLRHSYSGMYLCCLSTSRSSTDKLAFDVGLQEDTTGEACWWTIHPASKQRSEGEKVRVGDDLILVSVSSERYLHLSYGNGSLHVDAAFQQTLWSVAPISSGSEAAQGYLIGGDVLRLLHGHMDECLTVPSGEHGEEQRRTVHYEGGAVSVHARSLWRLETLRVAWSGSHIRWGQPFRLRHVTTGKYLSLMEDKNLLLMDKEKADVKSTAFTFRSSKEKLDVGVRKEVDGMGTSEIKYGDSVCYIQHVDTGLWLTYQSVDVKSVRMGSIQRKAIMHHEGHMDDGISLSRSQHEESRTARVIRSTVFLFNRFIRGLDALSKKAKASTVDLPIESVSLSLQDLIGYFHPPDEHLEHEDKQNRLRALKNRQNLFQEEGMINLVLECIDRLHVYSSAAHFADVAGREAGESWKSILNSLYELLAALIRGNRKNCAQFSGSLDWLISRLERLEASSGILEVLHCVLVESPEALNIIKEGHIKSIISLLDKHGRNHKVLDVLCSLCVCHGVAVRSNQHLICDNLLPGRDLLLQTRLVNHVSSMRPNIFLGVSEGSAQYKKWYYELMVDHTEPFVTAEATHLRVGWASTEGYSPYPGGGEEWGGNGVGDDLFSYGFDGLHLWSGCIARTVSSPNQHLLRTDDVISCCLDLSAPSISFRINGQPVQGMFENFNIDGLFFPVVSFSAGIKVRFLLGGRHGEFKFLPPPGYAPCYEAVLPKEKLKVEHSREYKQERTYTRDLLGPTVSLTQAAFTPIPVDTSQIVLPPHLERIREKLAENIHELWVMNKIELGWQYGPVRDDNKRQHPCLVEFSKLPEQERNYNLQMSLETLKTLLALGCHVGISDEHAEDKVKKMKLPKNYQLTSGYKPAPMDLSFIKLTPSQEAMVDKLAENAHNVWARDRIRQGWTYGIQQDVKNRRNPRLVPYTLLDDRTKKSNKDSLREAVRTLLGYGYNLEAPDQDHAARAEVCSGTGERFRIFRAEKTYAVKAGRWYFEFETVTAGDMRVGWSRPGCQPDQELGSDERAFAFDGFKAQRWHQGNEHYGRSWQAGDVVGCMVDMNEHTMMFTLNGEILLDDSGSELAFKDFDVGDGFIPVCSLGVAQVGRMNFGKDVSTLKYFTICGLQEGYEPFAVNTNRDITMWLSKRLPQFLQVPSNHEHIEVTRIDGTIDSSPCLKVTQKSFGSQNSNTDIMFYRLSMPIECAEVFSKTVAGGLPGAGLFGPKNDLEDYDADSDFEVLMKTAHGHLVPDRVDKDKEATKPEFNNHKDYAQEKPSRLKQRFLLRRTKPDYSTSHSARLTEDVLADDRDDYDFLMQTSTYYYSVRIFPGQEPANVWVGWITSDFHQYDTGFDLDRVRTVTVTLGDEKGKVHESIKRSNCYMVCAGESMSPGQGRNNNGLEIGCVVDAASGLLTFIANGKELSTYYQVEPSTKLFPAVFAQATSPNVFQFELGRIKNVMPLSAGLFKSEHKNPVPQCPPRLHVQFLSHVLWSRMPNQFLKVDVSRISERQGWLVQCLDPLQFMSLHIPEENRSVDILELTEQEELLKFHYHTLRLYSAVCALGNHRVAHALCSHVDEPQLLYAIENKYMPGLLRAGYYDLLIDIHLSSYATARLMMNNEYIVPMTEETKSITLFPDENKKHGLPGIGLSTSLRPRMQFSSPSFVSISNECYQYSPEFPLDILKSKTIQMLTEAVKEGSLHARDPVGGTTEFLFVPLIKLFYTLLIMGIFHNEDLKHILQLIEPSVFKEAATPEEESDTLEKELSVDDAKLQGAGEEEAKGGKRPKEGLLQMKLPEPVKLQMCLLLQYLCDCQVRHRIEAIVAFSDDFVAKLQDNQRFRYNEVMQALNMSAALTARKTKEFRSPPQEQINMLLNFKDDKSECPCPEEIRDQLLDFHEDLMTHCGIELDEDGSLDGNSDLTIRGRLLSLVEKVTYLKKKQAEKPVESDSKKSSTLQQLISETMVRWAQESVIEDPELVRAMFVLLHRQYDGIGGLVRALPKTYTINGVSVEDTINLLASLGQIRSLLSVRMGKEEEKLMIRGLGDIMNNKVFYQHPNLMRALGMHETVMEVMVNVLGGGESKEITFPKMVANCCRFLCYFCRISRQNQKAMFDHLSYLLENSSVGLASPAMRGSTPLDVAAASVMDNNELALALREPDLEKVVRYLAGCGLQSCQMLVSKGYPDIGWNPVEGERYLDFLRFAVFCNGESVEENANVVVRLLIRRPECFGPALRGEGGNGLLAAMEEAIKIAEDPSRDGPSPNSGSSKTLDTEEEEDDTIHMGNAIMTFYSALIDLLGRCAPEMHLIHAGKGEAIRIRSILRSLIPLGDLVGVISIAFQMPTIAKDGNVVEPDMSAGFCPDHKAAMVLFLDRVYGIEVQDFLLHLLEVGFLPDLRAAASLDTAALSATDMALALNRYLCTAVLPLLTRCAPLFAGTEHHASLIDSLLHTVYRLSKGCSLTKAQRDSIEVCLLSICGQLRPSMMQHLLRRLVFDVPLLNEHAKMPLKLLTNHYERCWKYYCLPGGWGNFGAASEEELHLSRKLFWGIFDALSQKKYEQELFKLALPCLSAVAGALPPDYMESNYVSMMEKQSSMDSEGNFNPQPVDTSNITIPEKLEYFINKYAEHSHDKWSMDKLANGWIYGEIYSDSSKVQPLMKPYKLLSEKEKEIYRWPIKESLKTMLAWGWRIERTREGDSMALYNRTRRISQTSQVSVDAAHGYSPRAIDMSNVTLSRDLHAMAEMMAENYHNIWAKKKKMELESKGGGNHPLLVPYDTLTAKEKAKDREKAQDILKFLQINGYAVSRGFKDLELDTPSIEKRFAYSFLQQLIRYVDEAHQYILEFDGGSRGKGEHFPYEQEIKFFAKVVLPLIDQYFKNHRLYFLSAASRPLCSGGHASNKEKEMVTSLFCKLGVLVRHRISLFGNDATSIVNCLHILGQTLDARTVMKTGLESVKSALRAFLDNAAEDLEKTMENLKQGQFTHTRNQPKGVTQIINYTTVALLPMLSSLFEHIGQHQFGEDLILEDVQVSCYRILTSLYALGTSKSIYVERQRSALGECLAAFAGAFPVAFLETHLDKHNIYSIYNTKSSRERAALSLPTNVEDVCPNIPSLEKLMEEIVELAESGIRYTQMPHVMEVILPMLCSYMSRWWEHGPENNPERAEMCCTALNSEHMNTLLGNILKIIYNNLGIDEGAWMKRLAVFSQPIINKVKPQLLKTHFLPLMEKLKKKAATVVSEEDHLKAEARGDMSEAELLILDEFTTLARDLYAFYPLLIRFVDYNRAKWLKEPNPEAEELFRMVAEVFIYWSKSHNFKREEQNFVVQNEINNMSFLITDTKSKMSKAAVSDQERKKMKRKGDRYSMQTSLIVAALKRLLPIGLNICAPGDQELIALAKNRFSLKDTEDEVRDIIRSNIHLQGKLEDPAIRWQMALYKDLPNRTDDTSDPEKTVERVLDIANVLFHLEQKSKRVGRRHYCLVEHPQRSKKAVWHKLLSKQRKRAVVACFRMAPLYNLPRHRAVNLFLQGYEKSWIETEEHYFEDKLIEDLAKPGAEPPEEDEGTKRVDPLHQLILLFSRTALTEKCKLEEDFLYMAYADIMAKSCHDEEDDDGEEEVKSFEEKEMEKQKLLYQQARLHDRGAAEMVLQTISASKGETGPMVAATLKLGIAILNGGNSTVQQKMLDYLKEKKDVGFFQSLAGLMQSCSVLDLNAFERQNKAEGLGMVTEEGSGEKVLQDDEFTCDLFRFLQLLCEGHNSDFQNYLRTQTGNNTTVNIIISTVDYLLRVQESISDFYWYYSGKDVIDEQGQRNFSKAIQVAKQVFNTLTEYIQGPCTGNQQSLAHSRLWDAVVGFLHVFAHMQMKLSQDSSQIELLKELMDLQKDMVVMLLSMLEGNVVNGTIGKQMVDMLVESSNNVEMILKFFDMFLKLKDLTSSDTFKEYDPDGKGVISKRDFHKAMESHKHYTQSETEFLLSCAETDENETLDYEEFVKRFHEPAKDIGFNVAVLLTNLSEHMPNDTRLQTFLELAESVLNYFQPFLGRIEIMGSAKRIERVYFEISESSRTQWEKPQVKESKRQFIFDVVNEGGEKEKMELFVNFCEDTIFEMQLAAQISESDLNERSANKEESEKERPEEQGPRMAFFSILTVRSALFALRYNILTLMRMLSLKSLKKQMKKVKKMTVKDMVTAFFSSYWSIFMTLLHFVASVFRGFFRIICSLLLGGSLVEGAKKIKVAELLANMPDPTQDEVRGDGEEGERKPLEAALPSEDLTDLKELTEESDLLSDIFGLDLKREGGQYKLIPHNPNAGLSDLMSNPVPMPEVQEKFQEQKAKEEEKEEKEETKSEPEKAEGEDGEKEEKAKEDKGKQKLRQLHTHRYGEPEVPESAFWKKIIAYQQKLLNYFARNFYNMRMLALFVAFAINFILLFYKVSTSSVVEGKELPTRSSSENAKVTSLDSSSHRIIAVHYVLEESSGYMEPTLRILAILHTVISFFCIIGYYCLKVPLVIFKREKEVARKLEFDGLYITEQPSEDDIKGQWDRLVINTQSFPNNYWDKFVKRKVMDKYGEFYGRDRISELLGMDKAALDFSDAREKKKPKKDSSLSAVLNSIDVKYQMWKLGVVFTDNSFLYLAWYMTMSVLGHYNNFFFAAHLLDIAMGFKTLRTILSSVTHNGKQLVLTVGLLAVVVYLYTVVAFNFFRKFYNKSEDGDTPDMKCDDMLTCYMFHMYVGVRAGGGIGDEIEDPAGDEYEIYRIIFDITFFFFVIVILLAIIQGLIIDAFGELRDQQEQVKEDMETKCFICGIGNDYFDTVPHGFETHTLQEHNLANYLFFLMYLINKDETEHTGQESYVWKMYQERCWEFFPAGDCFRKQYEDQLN
T1 sequence (P68106 whole entry partner): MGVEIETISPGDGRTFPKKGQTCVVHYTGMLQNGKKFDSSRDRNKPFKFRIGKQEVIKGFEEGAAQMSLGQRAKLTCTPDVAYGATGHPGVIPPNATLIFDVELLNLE

## COc1ccc2c(c1)CN(CC(=O)O)CCS2 [A]
[1]
  systolic and diastolic cardiac function: failed to improve

## COc1ccc2c(c1)CN(Cc1ccc(O)cc1)CCS2 [B]
[2]
  Class (metabolic bioavailability): very low
  Clint_mic rat (in vitro intrinsic clearance): 823 ml/min/gprot
  MF mic % (metabolic bioavailability): 5%
[3]
  Class (metabolic bioavailability): very low
  Clint_mic man (in vitro intrinsic clearance): 285 ml/min/gprot
  MF mic % (metabolic bioavailability): 6%
[4]; 15 min
  % remaining: 0%
[4]; 30 min
  % remaining: 0%
[4]; 1 h
  % remaining: 0%
[5]; 15 min
  % remaining: 1%
[5]; 30 min
  % remaining: 0%
[5]; 1 h
  % remaining: 0%
Rat hepatocytes
  MF rat %: 3%
  Clint: 1334 ml/min/gprot
Human hepatocytes
  MF human %: 3%
  Clint: 693 ml/min/gprot

## COC(=O)c1cccc(CN2CCSc3ccc(OC)cc3C2)c1 [Compound 2, Methyl 3-((7-methoxy-2,3-dihydrobenzo[f][1,4]thiazepin-4(5H)-yl)methyl)benzoate]
PKA-phosphorylated RyR2
  binding of calstabin2 to PKA-phosphorylated RyR2: prevent dissociation of calstabin2 from PKA-phosphorylated RyR2, and/or enhance the (re)binding of calstabin2 to PKA-phosphorylated RyR2

## COC(=O)c1ccc(CN2CCSc3ccc(OC)cc3C2)cc1 [Compound 3, Methyl 4-((7-methoxy-2,3-dihydrobenzo[f][1,4]thiazepin-4(5H)-yl)methyl)benzoate]
PKA-phosphorylated RyR2
  binding of calstabin2 to PKA-phosphorylated RyR2: prevent dissociation of calstabin2 from PKA-phosphorylated RyR2, and/or enhance the (re)binding of calstabin2 to PKA-phosphorylated RyR2

## COc1ccc2c(c1)CN(Cc1cccc(C(=O)O)c1)CCS2 [Compound 4, 3-((7-Methoxy-2,3-dihydrobenzo[f][1,4]thiazepin-4(5H)-yl)methyl)benzoic acid]
PKA-phosphorylated RyR1
  EC50: ~150 nM
PKA-phosphorylated RyR1; indicated concentrations, immunoblot with calstabin1 antibody
  binding of calstabin1 to PKA phosphorylated RyR1: prevented the dissociation of calstabin1 from PKA phosphorylated RyR1 and/or enhanced the (re)binding of calstabin1 to PKA-phosphorylated RyR1 in a dose-dependent manner
PKA-phosphorylated RyR2
  binding of calstabin2 to PKA-phosphorylated RyR2: prevent dissociation of calstabin2 from PKA-phosphorylated RyR2, and/or enhance the (re)binding of calstabin2 to PKA-phosphorylated RyR2

## COc1ccc2c(c1)CN(Cc1ccccc1)CCS2 [Compound C]
[2]
  Class (metabolic bioavailability): very low
  Clint_mic rat (in vitro intrinsic clearance): 1926 ml/min/gprot
  MF mic % (metabolic bioavailability): 2%
[3]
  Class (metabolic bioavailability): very low
  Clint_mic man (in vitro intrinsic clearance): 1326 ml/min/gprot
  MF mic % (metabolic bioavailability): 2%
[4]; 15 min
  % remaining: 0%
[4]; 30 min
  % remaining: 0%
[4]; 1 h
  % remaining: 0%
[5]; 15 min
  % remaining: 0%
[5]; 30 min
  % remaining: 0%
[5]; 1 h
  % remaining: 0%
Rat hepatocytes
  MF rat %: 2%
  Clint: 2610 ml/min/gprot
Human hepatocytes
  MF human %: 16%
  Clint: 100 ml/min/gprot

## O=C1CN(/N=C/c2ccc(-c3ccc([N+](=O)[O-])cc3)o2)C(O)=N1 [Dantrolene]
DMD exon skipping
  antisense oligomer-guided exon skipping: potentiate
